Earlier results in patent US20230381158A1, “COMPOSITIONS FOR THE TREATMENT OF NON-ALCOHOLIC FATTY LIVER DISEASE AND NON-ALCOHOLIC STEATOHEPATITIS” (LUMOS PHARMA, INC., priority 2018, published 2023).
Where a name gives a salt, the structure may show the parent alone. Ends that are not written are not given here.

Experiments:
GH/IGF-1 axis = conditions: in vivo
[1] = FDA warning
subjects = conditions: 12 subjects treated for 24 weeks
NAFLD patients = conditions: 24 week study, 50 NAFLD patients, versus placebo
Type 2 diabetic patients = Type 2 diabetic patients on metformin and/or a sulphonylurea agent, 12 week treatment
[2] = long-term or high-dose use; several conflicting results exist
[3] = test system: adults NASH without diabetes and cirrhosis; conditions: 800 mg/day, versus placebo
NASH patients = conditions: 300 mg/day for more than 2 years, Japan
[4] = five studies
adult NASH patients = conditions: 1 year treatment, adult NASH patients refractory to dietary intervention
[5] = compared with the control group

CC(C)(N)C(=O)N[C@H](COCc1ccccc1)C(=O)N1CCC2(CC1)CN(S(C)(=O)=O)c1ccccc12 [ibutamoren, ibutamoren mesylate]
amplitude of pulsatile release of endogenous GH (GH/IGF-1 axis): enhances
GH secretion (obese individuals): enhance GH secretion
lean body mass (obese individuals): increase lean body mass
serum IGF-1 (obese individuals): increase serum IGF-1
glucose stimulated insulin secretion (pancreatic […]-cells): does not suppress

CCc1ccc(CCOc2ccc(CC3SC(=O)NC3=O)cc2)nc1 (centres unmarked) [pioglitazone]
risk of bladder cancer [1]: may be linked to an increased risk of bladder cancer

N[C@@H](CC(=O)N1CCn2c(nnc2C(F)(F)F)C1)Cc1cc(F)c(F)cc1F [sitagliptin]
fibrosis (subjects): no improvement
reducing liver fat (NAFLD patients): no better than placebo
hepatic steatosis or fibrosis (Type 2 diabetic patients): neither treatment reduced hepatic steatosis or fibrosis

ghrelin (GSSFLSPEHQRVQQRKESKKPPAKLQPR; ends and bridges not checked; UniProt Q9UBU3 24-51, looked up) [hormone produced in the gastrointestinal tract that modulates GH]
insulin release from pancreatic […]-cells (pancreatic […]-cells): inhibits insulin release

vitamin E
all-cause mortality, prostatic cancer, hemorrhagic stroke [2]: may increase
improvements of NASH histology [3]: superior to placebo
hepatic fibrosis (NASH patients): can ameliorate hepatic fibrosis
hepatic steatosis [4, 5]: significantly reduced
hepatocellular ballooning [4, 5]: significantly reduced
inflammation [4, 5]: significantly reduced
serum hepatobiliary enzymes [4, 5]: significantly reduced
fibrosis improvement [4]: not confirmed
TGF-β1 (adult NASH patients): reduced
serum transaminase activities (adult NASH patients): reduced
